Results published in paper PMC11600623 (Clinical and Translational Science, 2024).
Where two headings read alike, the source gives them in different places.

Assays:
Assay type in all cases: in vivo, human
[1] = Population PK model of AC886
[2] = Influence of covariates on steady-state exposure metrics
[3] = Population PK model of quizartinib
[4] = final model, typical subject, f MET fixed to 0.5
[5] = newly diagnosed AML vs R/R AML and non-AML reference
[6] = residual unexplained variability
[7] = newly diagnosed AML vs R/R AML reference

Structure (SMILES): CC(C)(CO)c1cc(NC(=O)Nc2ccc(-c3cn4c(n3)sc3cc(OCCN5CCOCC5)ccc34)cc2)no1 [AC886]
- IIV (CV) for CLAC886 ([1]; AML patients): 74%
- Interindividual variability of systemic clearance ([1]; abstract statement for both moieties): approximately 70 % coefficient of variation
- Fractional change in CLAC886 for Black race ([1]; final model covariate effect): 0.488
- Fractional change in CLAC886 for non-AML subjects ([1]; final model covariate effect): 0.843
- Fractional change in CLAC886 with strong CYP3A inhibitors ([1]; final model covariate effect): 0.298
- Fractional change in V c,AC886 with strong CYP3A inhibitors ([1]; final model covariate effect): 2.79
- Q AC886 (apparent intercompartmental clearance) ([1]; final model, typical subject): 3.76 L/h
- V p,AC886 (apparent peripheral volume of distribution) ([1]; final model, typical subject): 68.5 L
- CLAC886 (apparent CL of AC886) [1, 4]: 4.61 L/h
- V c,AC886 (apparent central volume of distribution) [1, 4]: 8.93 L
- IIV CLAC886 AML patients ([1]; interindividual variability): 0.740 CV
- IIV CLAC886 non-AML subjects ([1]; interindividual variability): 0.516 CV
- IIV V c,AC886 ([1]; interindividual variability): 1.36 CV
- Fractional change in f MET during Consolidation [1, 5]: 0.272
- Fractional change in f MET during Continuation [1, 5]: −0.249
- Fractional change in f MET during Induction [1, 5]: 0.715
- Additive RUV log scale AML patients [1, 6]: 0.452 CV
- Additive RUV log scale non-AML subjects [1, 6]: 0.312 CV
- Change of exposure compared to all other race categories ([2]; Black race, median difference): ~0.7 fold

Structure (SMILES): CC(C)(C)c1cc(NC(=O)Nc2ccc(-c3cn4c(n3)sc3cc(OCCN5CCOCC5)ccc34)cc2)no1 [quizartinib]
- IIV D1 [3]: 82 % coefficient of variation (CV)
- IIV Q 1,quiz [3]: 69 % CV
- IIV (CV) for F rel ([3]; AML patients): 44%
- Age effect on V p1,quiz ([3]; exponential covariate model): 0.0152 1/year
- D1 (duration of zero-order input to depot compartment) ([3]; final model): 0.710 h
- Shape box-cox parameter for IIV on F rel for AML patients ([3]; final model): −1.28
- T lag (absorption lag time) ([3]; final model): 0.196 h
- k a (first-order absorption rate constant) ([3]; final model): 1.10 h⁻¹
- Fractional change in CLquiz for Black race ([3]; final model covariate effect): −0.261
- Fractional change in CLquiz with strong CYP3A inhibitors ([3]; final model covariate effect): −0.301
- Fractional change in F rel with moderate CYP3A inhibitors ([3]; final model covariate effect): 0.116
- Fractional change in F rel with strong CYP3A inhibitors ([3]; final model covariate effect): 0.273
- Fractional change in V c,quiz for females ([3]; final model covariate effect): −0.169
- Fractional change in k a for non-AML subjects ([3]; final model covariate effect): −0.188
- Q 1,quiz (apparent intercompartmental clearance 1) ([3]; final model, typical subject): 40.7 L/h
- Q 2,quiz (apparent intercompartmental clearance 2) ([3]; final model, typical subject): 0.757 L/h
- V p1,quiz (apparent peripheral volume of distribution 1) ([3]; final model, typical subject): 312 L
- V p2,quiz (apparent peripheral volume of distribution 2) ([3]; final model, typical subject): 91.9 L
- Vd ([3]; human, plasma, oral): 371 L
- clearance ([3]; human, plasma, oral): 111 mL/min
- IIV D1 ([3]; interindividual variability): 0.821 CV
- IIV F rel AML patients ([3]; interindividual variability): 0.444 CV
- IIV F rel non-AML subjects ([3]; interindividual variability): 0.256 CV
- IIV Q 1,quiz ([3]; interindividual variability): 0.691 CV
- IIV T lag ([3]; interindividual variability): 0.647 CV
- IIV V c,quiz ([3]; interindividual variability): 0.186 CV
- IIV k a ([3]; interindividual variability): 0.423 CV
- Fractional change in F rel during Consolidation [3, 7]: −0.192
- Fractional change in F rel during Continuation [3, 7]: 0.418
- Fractional change in F rel during Induction [3, 7]: −0.419
- F rel for non-AML subjects ([3]; relative to AML patients): 1.73
- Additive RUV log scale AML patients [3, 6]: 0.440 CV
- Additive RUV log scale non-AML subjects [3, 6]: 0.102 CV
- Increase of exposure ([2]; concomitant administration of strong CYP3A inhibitors): ~2 fold
- Exposure in non-AML subjects compared to AML patients ([2]; higher in non-AML subjects): approximately 1.7 fold
- Increase of steady-state area under the curve during the dosing interval (AUCss) ([2]; use of strong CYP3A inhibitors): 1.8 fold
